This note sets out measurements from patent publication US7964607B2, “Pyrazolo[3,4-d]pyrimidine compounds” (Pfizer Inc., priority 2007, dated 2011).

T1 sequence (O76083 whole entry): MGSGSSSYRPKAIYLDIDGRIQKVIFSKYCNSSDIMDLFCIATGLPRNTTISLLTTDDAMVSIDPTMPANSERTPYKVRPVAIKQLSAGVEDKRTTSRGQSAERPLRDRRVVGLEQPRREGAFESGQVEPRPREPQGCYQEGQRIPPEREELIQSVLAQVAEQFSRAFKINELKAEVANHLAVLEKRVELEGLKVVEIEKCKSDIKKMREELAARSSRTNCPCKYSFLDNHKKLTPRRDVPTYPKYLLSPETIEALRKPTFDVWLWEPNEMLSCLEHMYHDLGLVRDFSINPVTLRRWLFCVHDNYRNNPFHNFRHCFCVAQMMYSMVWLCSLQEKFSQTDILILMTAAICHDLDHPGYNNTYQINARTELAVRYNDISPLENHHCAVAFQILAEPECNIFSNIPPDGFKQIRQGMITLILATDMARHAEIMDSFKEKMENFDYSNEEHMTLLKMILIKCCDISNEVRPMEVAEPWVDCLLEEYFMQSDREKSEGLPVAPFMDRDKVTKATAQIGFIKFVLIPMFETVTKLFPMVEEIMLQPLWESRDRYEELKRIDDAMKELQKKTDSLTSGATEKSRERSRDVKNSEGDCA

The first test addresses T1, human recombinant PDE9 enzyme (Homo sapiens, UniProt O76083).
T1 construct: made in house; host or cells: SF-9 insect cells
The experiment in a line: Phosphodiesterase 9 (PDE9) inhibitory activity, Scintillation Proximity (SPA) assay. It is filed as biochemical.
Details: not given
In outline: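 Recombinant human PDE9 from SF-9 cell lysate supernatant, diluted so that ≤20% of [3H]cGMP substrate was hydrolysed to 5′GMP. Reaction started with enzyme and run 30 min at room temperature with 2% DMSO final. SPA beads were counted after >300 min; background came from a high concentration of a PDE inhibitor.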
Consider `Cc1ccc(CN2C[C@@H](C)[C@H](c3nc4c(cnn4C4CCOCC4)c(=O)[nH]3)C2)cn1` [Example 79, 6-{(3S,4S)-4-methyl-1-[(6-methylpyridin-3-yl)methyl]pyrrolidin-3-yl}-1-(tetrahydro-2H-pyran-4-yl)-1,5-dihydro-4H-pyrazolo[3,4-d]pyrimidin-4-one], for which the IC50 amounted to 3.72 nM.

The same test, now with this note: human recombinant PDE9 from SF-9 cells; 50 nM [3H]cGMP; room temperature, 30 min; Examples 3-114; read-out: G5678A (U): IC50.
Turning to `Cc1cnc(CN2C[C@@H](c3nc4c(cnn4C4CCCC4)c(=O)[nH]3)[C@H](C3CC3)C2)cn1` (racemic) [Example 55, 1-cyclopentyl-6-{(3,4-trans)-4-cyclopropyl-1-[(5-methylpyrazin-2-yl)methyl]pyrrolidin-3-yl}-1,5-dihydro-4H-pyrazolo[3,4-d]pyrimidin-4-one], the IC50 worked out at 6.55 nM.

As to `C[C@@H]1CN(Cc2ccc3ccccc3n2)C[C@H]1c1nc2c(cnn2C2CCCC2)c(=O)[nH]1` (racemic) [Example 9, 1-cyclopentyl-6-[(3,4-trans)-4-methyl-1-(quinolin-2-ylmethyl)pyrrolidin-3-yl]-1,5-dihydro-4H-pyrazolo[3,4-d]pyrimidin-4-one], the IC50 came to 2.84 nM.

For the compound `COc1ccc2nccc(CN3C[C@@H](C)[C@H](c4nc5c(cnn5C(C)C)c(=O)[nH]4)C3)c2n1` (racemic) [Example 69, 1-isopropyl-6-{(3,4-trans)-1-[(6-methoxy-1,5-naphthyridin-4-yl)methyl]-4-methylpyrrolidin-3-yl}-1,5-dihydro-4H-pyrazolo[3,4-d]pyrimidin-4-one], the IC50 is 30.7 nM.

On to `Cc1cc(CN2C[C@@H](C)[C@H](c3nc4c(cnn4C4CCOCC4)c(=O)[nH]3)C2)n(C)n1` [Example 82, 6-{(3S,4S)-1-[(1,3-dimethyl-1H-pyrazolo-5-yl)methyl]-4-methylpyrrolidin-3-yl}-1-(tetrahydro-2H-pyran-4-yl)-1,5-dihydro-4H-pyrazolo[3,4-d]pyrimidin-4-one], for which the IC50 was 5.18 nM.

Consider `Cc1cnc(CN2C[C@@H](C)[C@H](c3nc4c(cnn4C4CCCC4)c(=O)[nH]3)C2)cn1` [Example 38, 1-cyclopentyl-6-{(3S,4S)-4-methyl-1-[(5-methylpyrazin-2-yl)methyl]pyrrolidin-3-yl}-1,5-dihydro-4H-pyrazolo[3,4-d]pyrimidin-4-one], for which the IC50 is 5.75 nM.

Turning to `C[C@@H]1CN(Cc2ccnc3ccccc23)C[C@H]1c1nc2c(cnn2C2CCCC2)c(=O)[nH]1` (racemic) [Example 10, 1-cyclopentyl-6-[(3,4-trans)-4-methyl-1-(quinolin-4-ylmethyl)pyrrolidin-3-yl]-1,5-dihydro-4H-pyrazolo[3,4-d]pyrimidin-4-one], the half-maximal inhibitory concentration (IC50) was found to be 4.98 nM.

`Cc1cccnc1CN1C[C@@H](C)[C@H](c2nc3c(cnn3C3CCCC3)c(=O)[nH]2)C1` (racemic) [Example 27, 1-cyclopentyl-6-{(3,4-trans)-4-methyl-1-[(3-methylpyridin-2-yl)methyl]pyrrolidin-3-yl}-1,5-dihydro-4H-pyrazolo[3,4-d]pyrimidin-4-one]: the IC50 came to 7.45 nM.

For `C[C@@H]1CN(Cc2cccc(C(F)(F)F)c2)C[C@H]1c1nc2c(cnn2C2CCOCC2)c(=O)[nH]1` [Example 105, 6-{(3S,4S)-4-methyl-1-[3-(trifluoromethyl)benzyl]pyrrolidin-3-yl}-1-(tetrahydro-2H-pyran-4-yl)-1,5-dihydro-4H-pyrazolo[3,4-d]pyrimidin-4-one], the IC50 is 3.29 nM.

For the compound `CC[C@@H]1CN(Cc2ccc3nccnc3c2)C[C@H]1c1nc2c(cnn2C(C)C)c(=O)[nH]1` (racemic) [Example 46, 6-[(3,4-trans)-4-ethyl-1-(quinoxalin-6-ylmethyl)pyrrolidin-3-yl]-1-isopropyl-1,5-dihydro-4H-pyrazolo[3,4-d]pyrimidin-4-one], the IC50 was 8.53 nM.

For the compound `C[C@@H]1CN(Cc2ccc(F)cc2F)C[C@H]1c1nc2c(cnn2C2CCOCC2)c(=O)[nH]1` [Example 100, 6-[(3S,4S)-1-(2,4-difluorobenzyl)-4-methylpyrrolidin-3-yl]-1-(tetrahydro-2H-pyran-4-yl)-1,5-dihydro-4H-pyrazolo[3,4-d]pyrimidin-4-one], the IC50 came to 22.7 nM.

The test is the same for the next values; noted with them: human recombinant PDE9 from SF-9 cells; 50 nM [3H]cGMP; room temperature, 30 min; additional compounds Ex. 115-228; read-out: G5678A (U):IC50.
Turning to `CC(C)c1csc(CN2C[C@@H](C)[C@H](c3nc4c(cnn4C4CCCC4)c(=O)[nH]3)C2)n1` (racemic) [Example 132, 1-cyclopentyl-6-{(3,4-trans)-1-[(4-isopropyl-1,3-thiazol-2-yl)methyl]-4-methylpyrrolidin-3-yl}-1,5-dihydro-4H-pyrazolo[3,4-d]pyrimidin-4-one], the half-maximal inhibitory concentration (IC50) amounted to 37.5 nM.

In the case of `C[C@@H]1CN(Cc2cccc3c2OCCO3)C[C@H]1c1nc2c(cnn2C2CCCC2)c(=O)[nH]1` (racemic) [Example 149, 1-cyclopentyl-6-[(3,4-trans)-1-(2,3-dihydro-1,4-benzodioxin-5-ylmethyl)-4-methylpyrrolidin-3-yl]-1,5-dihydro-4H-pyrazolo[3,4-d]pyrimidin-4-one], the half-maximal inhibitory concentration (IC50) amounted to 47.1 nM.

In the case of `C[C@@H]1CN(Cc2nccs2)C[C@H]1c1nc2c(cnn2C2CCCC2)c(=O)[nH]1` (racemic) [Example 165, 1-cyclopentyl-6-[(3,4-trans)-4-methyl-1-(1,3-thiazol-2-ylmethyl)pyrrolidin-3-yl]-1,5-dihydro-4H-pyrazolo[3,4-d]pyrimidin-4-one], the IC50 worked out at 54.2 nM.

Turning to `Cc1cccc(C)c1CN1C[C@@H](C)[C@H](c2nc3c(cnn3C3CCCC3)c(=O)[nH]2)C1` (relative stereo) [Example 195, 1-cyclopentyl-6-[(3,4-trans)-1-(2,6-dimethylbenzyl)-4-methylpyrrolidin-3-yl]-1,5-dihydro-4H-pyrazolo[3,4-d]pyrimidin-4-one], the 50% inhibitory concentration (IC50) is 198 nM.

As to `Cc1ncc(CN2C[C@@H](C)[C@H](c3nc4c(cnn4C4CCCC4)c(=O)[nH]3)C2)cn1` (racemic) [Example 167, 1-cyclopentyl-6-{(3,4-trans)-4-methyl-1-[(2-methylpyrimidin-5-yl)methyl]pyrrolidin-3-yl}-1,5-dihydro-4H-pyrazolo[3,4-d]pyrimidin-4-one], the IC50 was 40.7 nM.

Regarding `C[C@@H]1CN(Cc2ccc(Cl)c(Cl)c2)C[C@H]1c1nc2c(cnn2C2CCCC2)c(=O)[nH]1` (racemic) [Example 220, 1-cyclopentyl-6-[(3,4-trans)-1-(3,4-dichlorobenzyl)-4-methylpyrrolidin-3-yl]-1,5-dihydro-4H-pyrazolo[3,4-d]pyrimidin-4-one], the IC50 came out at 28 nM.

As for `COc1c(C)cnc(CN2C[C@@H](C)[C@H](c3nc4c(cnn4C4CCCC4)c(=O)[nH]3)C2)c1C` (racemic) [Example 196, 1-cyclopentyl-6-{(3,4-trans)-1-[(4-methoxy-3,5-dimethylpyridin-2-yl)methyl]-4-methylpyrrolidin-3-yl}-1,5-dihydro-4H-pyrazolo[3,4-d]pyrimidin-4-one], the IC50 stood at 187 nM.

As for `Cc1ncc(CN2C[C@@H](C)[C@H](c3nc4c(cnn4C4CCCC4)c(=O)[nH]3)C2)s1` (racemic) [Example 131, 1-cyclopentyl-6-{(3,4-trans)-4-methyl-1-[(2-methyl-1,3-thiazol-5-yl)methyl]pyrrolidin-3-yl}-1,5-dihydro-4H-pyrazolo[3,4-d]pyrimidin-4-one], the IC50 was determined as 41.9 nM.

For `COc1ncccc1CN1C[C@@H](C)[C@H](c2nc3c(cnn3C3CCCC3)c(=O)[nH]2)C1` (racemic) [Example 138, 1-cyclopentyl-6-{(3,4-trans}-1-[(2-methoxypyridin-3-yl)methyl]-4-methylpyrrolidin-3-yl}-1,5-dihydro-4H-pyrazolo[3,4-d]pyrimidin-4-one], the IC50 was 47.7 nM.

For `Cc1ccc(CN2C[C@@H](C)[C@H](c3nc4c(cnn4C4CCCC4)c(=O)[nH]3)C2)cc1F` (racemic) [Example 130, 1-cyclopentyl-6-[(3,4-trans)-1-(3-fluoro-4-methylbenzyl)-4-methylpyrrolidin-3-yl]-1,5-dihydro-4H-pyrazolo[3,4-d]pyrimidin-4-one], the IC50 was 60 nM.

Take `C[C@@H]1CN(Cc2ccc(C#N)cc2)C[C@H]1c1nc2c(cnn2C2CCCC2)c(=O)[nH]1` (racemic) [Example 193, 4-{[(3,4-trans)-3-(1-cyclopentyl-4-oxo-4,5-dihydro-1H-pyrazolo[3,4-d]pyrimidin-6-yl)-4-methylpyrrolidin-1-yl]methyl}benzonitrile]: the IC50 is 57.7 nM.

`C[C@@H]1CN(Cc2ccccc2OC(F)(F)F)C[C@H]1c1nc2c(cnn2C2CCCC2)c(=O)[nH]1` (racemic) [Example 224, 1-cyclopentyl-6-{(3,4-trans)-4-methyl-1-[2-(trifluoromethoxy)benzyl]pyrrolidin-3-yl}-1,5-dihydro-4H-pyrazolo[3,4-d]pyrimidin-4-one]: the half-inhibitory concentration (IC50) was 116 nM.

With `CCCc1ncc(CN2C[C@@H](C)[C@H](c3nc4c(cnn4C4CCCC4)c(=O)[nH]3)C2)cn1` (racemic) [Example 222, 1-cyclopentyl-6-{(3,4-trans)-4-methyl-1-[(2-propylpyrimidin-5-yl)methyl]pyrrolidin-3-yl}-1,5-dihydro-4H-pyrazolo[3,4-d]pyrimidin-4-one], the IC50 came to 6.03 nM.

As to `C[C@@H]1CN(CC2CCCC2)C[C@H]1c1nc2c(cnn2C2CCCC2)c(=O)[nH]1` (racemic) [Example 205, 1-cyclopentyl-6-[(3,4-trans)-1-(cyclopentylmethyl)-4-methylpyrrolidin-3-yl]-1,5-dihydro-4H-pyrazolo[3,4-d]pyrimidin-4-one], the half-maximal inhibitory concentration (IC50) amounted to 286 nM.

In the case of `C[C@@H]1CN(Cc2ccnc(C(C)(C)O)c2)C[C@H]1c1nc2c(cnn2C2CCCC2)c(=O)[nH]1` (racemic) [Example 189, 1-cyclopentyl-6-[(3,4-trans)-1-{[2-(1-hydroxy-1-methylethyl)pyridin-4-yl]methyl}-4-methylpyrrolidin-3-yl]-1,5-dihydro-4H-pyrazolo[3,4-d]pyrimidin-4-one], the IC50 was found to be 23.7 nM.
